Assay results: patent US20260103465A1, “GLYCOGEN SYNTHASE KINASE 3 INHIBITORS AND USES THEREOF” (The Broad Institute, Inc., priority 2023, published 2026)
Read-outs that look alike come from different tables or passages of the source.

How the values were obtained:
[1] = molecular target: T1, GSK3b (GST-full length GSK3b) (Homo sapiens, UniProt P49841); experiment: GSK3b TR-FRET kinase inhibition assay; type: biochemical
T1 construct: GST-full length GSK3b: [SignalChem G08-9G]; purchased SignalChem G08-9G
Method: (§1) TR-FRET assay was performed in a white, 384 well, low volume, flat bottom plate (Grenier). After a 30 minute preincubation in assay buffer with the indicated concentration of compound, the kinase activity was initiated by the addition of the substrates. 1 nM GSK3a (GST-full length GSK3a [SignalChem G08-10G]) or 1 nM GSK3b (GST-full length GSK3b: [SignalChem G08-9G]) were then incubated at ambient temperature for 100 minutes in 10 μl of 50 mM Tris, pH 7.5, 20 mM MgCl2, 0.05 mM DTT, 100 μg/ml BSA and 1% DMSO, with 200 nM biotinylated peptide substrate (biotinylated and S645 phosphorylated glycogen synthase 631-650) and ATP (e.g., at 2 μM, 4 μM, 10 μM, 100 μM, or 1 mM). The kinase activity was quenched with 2 μl of 250 mM EDTA. A 10 μl volume of 40 nM Strepavidin-d2, 2 nM […] antibody in TR-FRET Detection Buffer (Invitrogen) was then added. After 60 min at room temperature the plate was read on Envision plate reader using Ex: 340 nm, Em: 615 nm and […]. The normalized 665/615 Signal ratio versus log compound concentration was analyzed by XLFIT to yield IC50 values.

[2] = molecular target: T2, GSK3a (GST-full length GSK3a) (Homo sapiens, UniProt P49840); experiment: GSK3a TR-FRET kinase inhibition assay; type: biochemical
T2 construct: GST-full length GSK3a [SignalChem G08-10G]; purchased SignalChem G08-10G
Method: as §1

[3] = 1 mM ATP, Table 3, read-out: GSK3b TR-FRET 1 mM ATP Average IC50
[4] = 1 mM ATP, Table 3, read-out: GSK3a TR-FRET 1 mM ATP Average IC50
[5] = 1 mM ATP, Table 5, read-out: GSK3β TR-FRET 1 mM ATP Average IC50
[6] = 1 mM ATP, Table 5, read-out: GSK3α TR-FRET 1 mM ATP Average IC50
[7] = 2 μM ATP, read-out: GSK3β TR-FRET 2 μM ATP GMean IC50
[8] = 4 μM ATP, read-out: GSK3α TR-FRET 4 μM ATP GMean IC50

T1 sequence (P49841 whole entry): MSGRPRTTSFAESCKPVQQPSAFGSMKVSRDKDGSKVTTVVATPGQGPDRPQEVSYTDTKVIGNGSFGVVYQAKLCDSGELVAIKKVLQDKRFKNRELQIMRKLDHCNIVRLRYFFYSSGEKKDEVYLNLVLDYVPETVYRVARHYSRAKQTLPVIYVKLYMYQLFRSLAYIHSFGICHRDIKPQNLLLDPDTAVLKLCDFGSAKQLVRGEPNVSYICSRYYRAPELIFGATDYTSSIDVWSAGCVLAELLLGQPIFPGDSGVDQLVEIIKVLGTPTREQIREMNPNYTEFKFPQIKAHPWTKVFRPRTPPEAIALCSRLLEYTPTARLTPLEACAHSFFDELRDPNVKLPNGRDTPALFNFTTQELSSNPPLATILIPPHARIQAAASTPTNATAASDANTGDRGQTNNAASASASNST
T2 sequence (P49840 whole entry): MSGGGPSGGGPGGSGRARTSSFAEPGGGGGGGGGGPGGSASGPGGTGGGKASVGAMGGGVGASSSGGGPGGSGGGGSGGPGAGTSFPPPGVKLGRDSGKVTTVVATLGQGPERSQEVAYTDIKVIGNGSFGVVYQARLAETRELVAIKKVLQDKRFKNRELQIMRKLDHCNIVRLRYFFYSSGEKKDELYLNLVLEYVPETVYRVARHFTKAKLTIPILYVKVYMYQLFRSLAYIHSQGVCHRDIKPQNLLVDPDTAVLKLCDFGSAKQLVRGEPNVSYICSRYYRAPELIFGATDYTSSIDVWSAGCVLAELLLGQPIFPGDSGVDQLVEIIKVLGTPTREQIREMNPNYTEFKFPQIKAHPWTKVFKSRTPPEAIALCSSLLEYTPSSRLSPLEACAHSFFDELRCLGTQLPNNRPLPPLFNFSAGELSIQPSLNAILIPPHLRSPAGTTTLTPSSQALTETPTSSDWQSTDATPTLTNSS

SMILES | IC50 [1, 5] | IC50 [2, 6] | also measured
COc1cncc(F)c1-c1cccc(C2(C)C3=C(CC(C)(C)CC3=O)Nc3ncc(C(F)(F)F)cc32)c1 (single isomer, unassigned) [Compound 174A] |  |  | IC50 [1, 3]: 1 to 5 µM; IC50 [2, 4]: 1 to 5 µM
CC1(C)CC(=O)C2=C(C1)Nc1ncc(I)c(Br)c1C2(C)c1ccccc1 (single isomer, unassigned) [657B] | 1 to 5 µM | 5 to 20 µM | 
CC1(C)CC(=O)C2=C(C1)Nc1nccc(F)c1C2(C)c1ccccc1 (single isomer, unassigned) [Compound 105B] |  |  | IC50 [1, 3]: 1 to 5 µM; IC50 [2, 4]: 1 to 5 µM
CC1(C)CC(=O)C2=C(C1)Nc1ncc3ccccc3c1C2(C)c1ccccc1 (single isomer, unassigned) [606B] | 1 to 5 µM | 1 to 5 µM | 
C=Cc1cnc2c(c1C#N)C(C)(c1ccccc1)C1=C(CC(C)(C)CC1=O)N2 (single isomer, unassigned) [607A] | 1 to 5 µM | 1 to 5 µM | 
CC1(C)CC(=O)C2=C(C1)Nc1ncc(F)c(C#N)c1C2(C)c1cccc(-c2ccncc2CC(F)(F)F)c1 (single isomer, unassigned) [656B] | ≤ 0.1 µM | ≤ 0.1 µM | 
CC1(C)CC(=O)C2=C(C1)Nc1ncccc1C2(C)c1cccc(-c2ccncc2CC(F)(F)F)c1 (single isomer, unassigned) [Compound 163A] |  |  | IC50 [1, 3]: 0.1 to 1 µM; IC50 [2, 4]: 0.1 to 1 µM
CCc1cnc2c(c1C#N)C(C)(c1ccccc1)C1=C(CC(C)(C)CC1=O)N2 (single isomer, unassigned) [608A] | 1 to 5 µM | 1 to 5 µM | 
CC1(C)CC(=O)C2=C(Nc3ncc(F)c(C#N)c3[C@]2(C)c2ccccc2)[C@@H]1F (single isomer, unassigned) [Compound 617C] | 5 to 20 µM | 5 to 20 µM | 
CC1(C)CC(=O)C2=C(C1)Nc1ncc(Br)c(Cl)c1C2(C)c1ccccc1 (single isomer, unassigned) [Compound 145A] |  |  | IC50 [1, 3]: 1 to 5 µM; IC50 [2, 4]: 1 to 5 µM
CC1(C)CC(=O)C2=C(C1)Nc1nccc(C(F)(F)F)c1C2(C)c1ccccc1 (single isomer, unassigned) [Compound 127B] |  |  | IC50 [1, 3]: 5 to 20 µM; IC50 [2, 4]: 5 to 20 µM
CC1(C)CC2=C(C(=O)N1)C(C)(c1cccc(S(C)(=O)=O)c1)c1cc(C(F)(F)F)cnc1N2 (single isomer, unassigned) [651B] | 0.1 to 1 µM | 0.1 to 1 µM | 
CCC1(c2cccc(C3CCC3)c2)C2=C(CC(C)(C)CC2=O)Nc2ncccc21 (racemic) [Compound 1012] |  |  | IC50 [1, 7]: ≤ 0.1 µM; IC50 [2, 8]: ≤ 0.1 µM
CC(C)Oc1cccc(C2(C)C3=C(CC(C)(C)CC3=O)Nc3ncc4c(cnn4C)c32)c1 (single isomer, unassigned) [645B] | 1 to 5 µM | 5 to 20 µM | 
CC(C)c1cnc2c(c1C#N)C(C)(c1ccccc1)C1=C(CC(C)(C)CC1=O)N2 (single isomer, unassigned) [622B] | 5 to 20 µM | 5 to 20 µM | 
CC1(C)CC(=O)C2=C(C1)Nc1ncc(C(F)(F)F)cc1C2(C)c1cccc(C(F)F)c1 (single isomer, unassigned) [646A] | 5 to 20 µM | 5 to 20 µM | 
CCC1(c2cccc(-c3cc(C)nn3C)c2)C2=C(CC(C)(C)CC2=O)Nc2ncccc21 (single isomer, unassigned) [Compound 1024A] |  |  | IC50 [1, 7]: > 5 µM; IC50 [2, 8]: 1 to 5 µM
Cc1nn(C)c(C)c1-c1cccc(C2(C)C3=C(CC(C)(C)CC3=O)Nc3ncc(C(F)(F)F)cc32)c1 (single isomer, unassigned) [Compound 170A] |  |  | IC50 [1, 3]: 1 to 5 µM; IC50 [2, 4]: 1 to 5 µM
CCC1(c2ccccc2)C2=C(CC(C)(C)CC2=O)Nc2ncc(C(F)(F)F)cc21 (single isomer, unassigned) [133 B] |  |  | IC50 [1, 7]: ≤ 0.1 µM; IC50 [2, 8]: ≤ 0.1 µM
CCC1(c2cccc(C(C)C)c2)C2=C(CC(C)(C)CC2=O)Nc2ncccc21 (single isomer, unassigned) [Compound 1011A] |  |  | IC50 [1, 7]: > 5 µM; IC50 [2, 8]: > 5 µM
CCC1(c2ccccc2)C2=C(CC(C)(C)CC2=O)Nc2ncc(F)cc21 (single isomer, unassigned) [114 B] |  |  | IC50 [1, 7]: 1 to 5 µM; IC50 [2, 8]: 0.1 to 1 µM

SMILES | IC50 [1, 5] | IC50 [2, 6] | also measured
CC(C)Oc1cccc(C2(C)C3=C(CC(C)(C)CC3=O)Nc3ncc(F)c(C#N)c32)c1 (single isomer, unassigned) [639A] | 5 to 20 µM | 5 to 20 µM | 
CCC1(c2cccc(-c3ccnn3C)c2)C2=C(CC(C)(C)CC2=O)Nc2ncccc21 (single isomer, unassigned) [Compound 1019B] |  |  | IC50 [1, 7]: > 5 µM; IC50 [2, 8]: > 5 µM
CC1(C)CC(=O)C2=C(Nc3ncc(C(F)F)c(C#N)c3[C@]2(C)c2ccccc2)[C@H]1F (single isomer, unassigned) [Compound 633A] | 1 to 5 µM | 5 to 20 µM | 
CC1(C)CC(=O)C2=C(C1)Nc1ncc(F)c(C(F)(F)F)c1C2(C)c1ccccc1 (single isomer, unassigned) [Compound 135B] |  |  | IC50 [1, 3]: 1 to 5 µM; IC50 [2, 4]: 5 to 20 µM
CC1(C)CC(=O)C2=C(C1)Nc1ncc(C(C)(F)F)c(C#N)c1C2(C)c1ccccc1 (single isomer, unassigned) [631B] | 5 to 20 µM | 5 to 20 µM | 
CC1(C)CC(=O)C2=C(C1)Nc1ncccc1C2(C)c1cccc(-c2ccncc2C2CCC2)c1 (single isomer, unassigned) [Compound 151A] |  |  | IC50 [1, 3]: 1 to 5 µM; IC50 [2, 4]: 1 to 5 µM
CC1(C)CC(=O)C2=C(Nc3ncc(F)c(C#N)c3[C@]2(C)c2ccccc2)[C@H]1F (single isomer, unassigned) [Compound 617A] | 5 to 20 µM | 5 to 20 µM | 
C=Cc1c(C(F)(F)F)cnc2c1C(C)(c1ccccc1)C1=C(CC(C)(C)CC1=O)N2 (single isomer, unassigned) [636A] | 0.1 to 1 µM | 1 to 5 µM | 
CC1(C)CC(=O)C2=C(C1)Nc1ncc(C#N)cc1C2(C)c1ccccc1 (single isomer, unassigned) [Compound 109B] |  |  | IC50 [1, 3]: 5 to 20 µM; IC50 [2, 4]: 5 to 20 µM
CN1C(=O)C2=C(CC1(C)C)Nc1ncc(F)c(C#N)c1C2(C)c1ccccc1 (single isomer, unassigned) [615A] | 1 to 5 µM | 1 to 5 µM | 
CC1(C)CC(=O)C2=C(C1)Nc1ncc(F)c(C#N)c1C2(C)c1ccccc1 (single isomer, unassigned) [Compound 121B] |  |  | IC50 [1, 3]: 1 to 5 µM; IC50 [2, 4]: 1 to 5 µM
CC(C)Oc1cccc(C2(C)C3=C(CC(C)(C)CC3=O)Nc3ncc(C(F)(F)F)cc32)c1 (single isomer, unassigned) [648B] | 0.1 to 1 µM | 1 to 5 µM | 
CC1(C)CC(=O)C2=C(C1)Nc1ncccc1C2(C)c1cccc(-c2ccncc2C(C)(C)C)c1 (single isomer, unassigned) [Compound 152A] |  |  | IC50 [1, 3]: 5 to 20 µM; IC50 [2, 4]: 1 to 5 µM
CC(C)Oc1cccc(C2(C)C3=C(CC(C)(C)CC3=O)Nc3ncc4c(cnn4C)c32)c1 (single isomer, unassigned) [645A] | 5 to 20 µM | 5 to 20 µM | 
CC1(C)CC(=O)C2=C(C1)Nc1ncc(F)c(C#N)c1C2(C)c1cccc(C(F)F)c1 (single isomer, unassigned) [634B] | ≤ 0.1 µM | ≤ 0.1 µM | 
C=Cc1c(C(F)(F)F)cnc2c1C(C)(c1ccccc1)C1=C(CC(C)(C)CC1=O)N2 (single isomer, unassigned) [636B] | 1 to 5 µM | 5 to 20 µM | 
CC1(C)CC(=O)C2=C(C1)Nc1ncc(Br)c(F)c1C2(C)c1ccccc1 (single isomer, unassigned) [Compound 140A] |  |  | IC50 [1, 3]: 0.1 to 1 µM; IC50 [2, 4]: 1 to 5 µM
CC1(C)CC(=O)C2=C(C1)Nc1ncc(CO)c(C#N)c1C2(C)c1ccccc1 (single isomer, unassigned) [613B] | 1 to 5 µM | 5 to 20 µM | 
CCC1(c2cccc(-c3cn(C)nc3C)c2)C2=C(CC(C)(C)CC2=O)Nc2ncccc21 (single isomer, unassigned) [Compound 1023B] |  |  | IC50 [1, 7]: 1 to 5 µM; IC50 [2, 8]: 0.1 to 1 µM
CN1C(=O)C2=C(CC1(C)C)Nc1ncc(C(F)F)c(C#N)c1C2(C)c1ccccc1 (single isomer, unassigned) [632B] | 0.1 to 1 µM | 0.1 to 1 µM | 
CC1(C)CC(=O)C2=C(C1)Nc1ncccc1C2(C)c1ccccc1 (single isomer, unassigned) [Compound 101B] |  |  | IC50 ([1]; 10 μM ATP, read-out: GSK3b 10 μM ATP Average IC50): 1 to 5 µM; IC50 ([1]; 100 μM ATP, read-out: GSK3b 100 μM ATP Average IC50): 20 to 60 µM; IC50 ([2]; 10 μM ATP, read-out: GSK3a 10 μM ATP Average IC50): 5 to 20 µM; IC50 ([2]; 100 μM ATP, read-out: GSK3a 100 μM ATP Average IC50): 20 to 60 µM

The next lines start with results.

IC50 [1, 5] | IC50 [2, 6] | SMILES | also measured
1 to 5 µM | 1 to 5 µM | CC1(C)CC(=O)C2=C(C1)Nc1ncc(F)cc1C2(C)c1cccc(-c2ccncc2CC(F)(F)F)c1 (single isomer, unassigned) [653A] | 
5 to 20 µM | 5 to 20 µM | Cn1ncc2c3c(ncc21)NC1=C(C(=O)CC(C)(C)C1)C3(C)c1ccccc1 (single isomer, unassigned) [609A] | 
